Patent US7872067B2, “Amphiphilic polymer compositions and their use” (priority 2004, dated 2011)
≈ marks a conversion by molar mass, not a printed value.

Test: Solubility of active compounds in distilled water

## Fc1ccc([C@]2(Cn3cncn3)O[C@H]2c2ccccc2Cl)cc1 (racemic) [epoxyconazole]
  Solubility in distilled water: 6.63 µg/mL (≈ 20.1 µM)
